The experiment deals with T1, human ANO1 channel (isoform acd) (Homo sapiens, UniProt Q5XXA6).
T1 construct: host or cells: HEK293T
T1 sequence (Q5XXA6 1-986): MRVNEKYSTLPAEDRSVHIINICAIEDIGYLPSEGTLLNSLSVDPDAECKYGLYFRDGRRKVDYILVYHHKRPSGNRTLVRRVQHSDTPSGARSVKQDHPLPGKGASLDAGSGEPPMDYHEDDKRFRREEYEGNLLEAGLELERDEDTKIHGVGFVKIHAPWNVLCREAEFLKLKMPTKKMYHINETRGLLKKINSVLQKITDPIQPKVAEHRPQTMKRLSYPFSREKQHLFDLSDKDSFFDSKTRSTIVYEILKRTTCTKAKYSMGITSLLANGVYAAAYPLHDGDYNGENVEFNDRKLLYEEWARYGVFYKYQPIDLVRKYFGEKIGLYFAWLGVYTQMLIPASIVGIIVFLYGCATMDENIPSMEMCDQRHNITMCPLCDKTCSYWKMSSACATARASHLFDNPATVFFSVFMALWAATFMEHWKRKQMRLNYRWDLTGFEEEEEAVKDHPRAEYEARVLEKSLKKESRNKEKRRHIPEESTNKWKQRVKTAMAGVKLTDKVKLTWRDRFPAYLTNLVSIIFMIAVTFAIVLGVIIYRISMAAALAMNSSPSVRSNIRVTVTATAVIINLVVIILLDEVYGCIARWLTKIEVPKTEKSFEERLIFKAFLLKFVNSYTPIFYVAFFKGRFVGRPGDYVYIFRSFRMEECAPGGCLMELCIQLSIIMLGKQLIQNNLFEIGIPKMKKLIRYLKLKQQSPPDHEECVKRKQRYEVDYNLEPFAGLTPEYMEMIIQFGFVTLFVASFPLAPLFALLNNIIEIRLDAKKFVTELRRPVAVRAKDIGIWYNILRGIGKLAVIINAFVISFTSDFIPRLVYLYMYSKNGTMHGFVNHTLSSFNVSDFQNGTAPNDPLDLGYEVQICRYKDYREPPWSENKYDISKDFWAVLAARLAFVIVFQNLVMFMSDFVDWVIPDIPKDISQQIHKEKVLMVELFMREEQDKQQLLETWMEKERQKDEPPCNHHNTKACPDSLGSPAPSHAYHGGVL
In words: QPatch-48 single-concentration/multiple-addition (extended incubation) protocol. It is filed as cell-based. Here is the method:
As mentioned, due to the nature of the channel and its rundown issues, time limitations exist for recording. Therefore, each concentration of compound is added to the cell for a duration of 60 s. It is possible that the IC50 is shifted for those compounds that require a longer time to act on the channel. To account for this, a single-concentration/multiple-addition protocol was established (Fig. 6). […] This led us to wonder if we were missing the full response to the concentration before the next liquid period began and the more concentrated, cumulative addition was applied to the cell. The original application protocol was amended to allow for two 4-min incubations with the same concentration of compound. The total length of the assay is roughly 15 min, with two 1-min saline additions to stabilize current, two 1-min vehicle additions to account for any DMSO effects, and two 4-min compound additions, ending with two 1-min saline additions to look for washout effects. The same IV voltage protocol was used as well as the same whole-cell conditions and solutions. When niclosamide was run with this extended incubation protocol, the IC50 was four times as potent (Fig. 6), aligning nicely with the other in-house assays that were run. A DMSO condition was included to account for any rundown that occurred, with the result of 92% current remaining at the end of the assay. Therefore, the block observed with niclosamide additions was not due to rundown. When 240 nM was added, the current plateaued at ∼60% current amplitude. […] Any compounds that result in partial inhibition with the original assay can be run on the multiple-addition assay to see if they require more time to inhibit the channel.
Fig. 6. Current time plots of the modified protocol with multiple additions of a single concentration. Top: IT plot when 240 nM niclosamide is added to a cell. Bottom: IT plot when 1.2 μM niclosamide is added to a cell.
On the technique in general: Patch clamp records ionic current or voltage across a cell membrane.

Read-outs that look alike come from different tables or passages of the source.

`O=C(Nc1ccc([N+](=O)[O-])cc1Cl)c1cc(Cl)ccc1O` [Niclosamide]: under “240 nM”, the “current amplitude at plateau” value is on record as ~60%. The “block in current after first 4-min incubation” value (1.2 μM, after first addition) came out at 50%. The “final block after second addition” value (1.2 μM, after second 4-min addition) came to 78%. Besides, the IC50 (Fig. 6 table in picture, read-out: IC50, Single Concentration- Multiple Additions) was determined as 352 nM; the IC50 (single concentration, multiple additions, Fig. 6 curve, read-out: IC50, modified single-concentration assay) came to 352 nM; the IC50 (two 4-min additions of the same concentration, n = 2, read-out: final IC50 (mean ± SD)) turned out to be 221 ± 185 nM.

The record behind these values is PMC7268545, “Development of a QPatch-Automated Electrophysiology Assay for Identifying TMEM16A Small-Molecule Inhibitors” (Assay and Drug Development Technologies, 2020).
